# Results taken from US20240166593A1, “LIPIDS SUITABLE FOR NUCLEIC ACID DELIVERY” (RAMOT AT TEL-AVIV UNIVERSITY LTD., priority 2021, published 2024).
# Several values for one entry are separate records, joined by “and”; a condition that tells them apart may be missing. Equal values may be shown once.
# Tests used:
# luciferase expression [1] = test: Luciferase expression in mouse organs after storage of mRNA-LNPs (IVIS); assay type: in vivo, mice; conditions: mLuc LNPs stored 210 days at 2-8° C.
# [2] = Stability of mRNA-LNPs stored at 2-8° C. (size, PDI); assay type: physicochemical
# SARS-CoV-2 = conditions: IM day 0 and booster day 21, serum 3 weeks after booster; BALB/c and C57BL6 mice
# Description: To evaluate the efficiency of our LNP system for vaccine delivery, mRNA against human Fc conjugated RBD (RBD-hFc mRNA) was chosen. LNPs encapsulated RBD-mRNA administered IM in to BALB/c mice (FIG. 19) and C57BL6 mice (FIG. 20) on day ‘0’ and a booster dose on day ‘21’. Serum was collected on day ‘21’ (pre boost) and 3 weeks after the booster dose (post boost) and analyzed for humoral response. […] The cellular response (SARS-CoV-2 specific T-cell response) was measured by ELISPOT assay for IFN-γ response.
# [3] = Physico-chemical characterization of LNPs made of different ionizable lipids (DLS, zeta potential); assay type: physicochemical
# Description: Various LNPs comprising different ionizable lipid were prepared by using microfluidic micro mixture (Precision NanoSystems, Vancouver, BC) device. Briefly, one volume of lipid mixtures (ionizable lipid, DSPC, Cholesterol and DMG-PEG at 30:18:49.5:2.5 mole ratios) in ethanol and three volumes of mRNA containing acetate buffer solutions were mixed through the micromixer at a combined flow rate of 12 mL/min. The resultant mixture was dialyzed against PBS (pH 7.4) for 16 hours to remove ethanol.
# The prepared LNPs comprising different ionizable lipids were characterized using transmission electron microscopy (TEM) analysis (FIGS. 10A-10G), dynamic light scattering (DLS) and zeta potential measurements. Table 1 represents the measured hydrodynamic diameter (Z-ave; d.nm), polydispersity index (PDI) and zeta potential (mV) of various LNPs. The resultant LNPs were spherical and uniformly distributed with a hydrodynamic diameter size of ˜50-260 nm, depending on the ionizable lipid used. Additionally, LNP surface potentials were negative.
# In addition, DSL1-3 LNPs comprising different amounts of PEG (1.5 mol % or 2.5 mol %) were compared for bio-distribution. Mice treated and sacrificed; organs prepared for luciferase expression analysis as detailed above. […] Next, as shown in FIGS. 11M-11P, mRNA-LNPs composed of DSL1-4, 1-5, 2-2 or 2-50 lipids were compared to DSPC or DOPE as co-lipids. […] Tables 2-5 detail the physio-chemical properties of LNPs made of either DOPE or DSPC (the measured hydrodynamic diameter (Z-ave; d.nm), polydispersity index (PDI)).
# [4] = tested on: Luciferase and mCherry expression; test: Delivery of two types of mRNA encapsulated in a single LNP (IVIS of livers); assay type: in vivo; conditions: mice livers; compared to SM102-LNPs
# mice = test: In vivo safety analysis of mRNA-LNPs (serum liver enzymes); conditions: mRNA-LNPs IV; serum after 2 hr and 24 hr; compared to untreated mice
# Description: After 2 hr and 24 hr blood was collected and serum samples were analyzed for levels of the liver enzymes alkaline phosphatase (Alk Phos), serum glutamic-oxaloacetic transaminase (SGOT) or serum glutamic pyruvic transaminase (SGPT).
# Safety is an important limitation for clinical development of LNPs. Therefore, mRNA-LNPs system made of DSL2-50 and DSL1-3 lipids were tested and evaluated for the toxicity in mice.
# luciferase expression [5] = test: In-vivo delivery of mRNA encoding luciferase using LNPs (IVIS of organs); parameters: species or system Mice; conditions: for bio-distribution on increasing ionizable lipid mole ratio (40% vs 30%): mRNA-LNPs IV; for luciferase activity of LNPs with DOPE as co-lipid compared to DSPC containing LNPs: mRNA-LNPs in mice; for bio-distribution of LNPs (luciferase expression by IVIS): mLUC-LNPs IV 0.5 mg/kg, 7 hr post administration, lung, liver, spleen, kidney
# peritoneal macrophages = test: mCRE-LNPs in Ai9 mice, FACS for tdTomato expression; assay type: in vivo; conditions: mCRE-LNPs IV 0.5 mg/kg, 72 hr post administration
# Description: (§1) Ai9 mice that express robust tdTomato fluorescence following cre-mediated recombination were injected intravenously with the various mCRE-LNPs at 0.5 mg/kg dose. Mice were sacrificed 72 hr post administration and peritoneal macrophages and spleenocytes were isolated and analyzed by FACS for tdTomato expression (FIGS. 13 and 14).
# [6] = tested on: CD11c positive splenic dendritic cells; test: as above; assay type: in vivo; conditions: mCRE-LNPs IV 0.5 mg/kg, 72 hr post administration
# Description: as §1
# tdTomato expression = test: Biodistribution of DSL1-2 LNPs compared to Dlin-MC3-DMA LNPs (IVIS of spleen and liver); assay type: in vivo, Ai9 mice; conditions: mCRE-LNPs IV 0.5 mg/kg, 72 hr post administration
# Description: Ai9 mice that express robust tdTomato fluorescence following cre-mediated recombination were injected intravenously with either Dlin-MC3-DMA or DSL1-2 mCRE-LNPs at 0.5 mg/kg dose. Mice were sacrificed 72 hr post administration followed by spleen and liver isolation and analyzed by IVIS for tdTomato expression.
# [7] = mRNA LNPs: ionizable lipid, DSPC, Cholesterol, DMG-PEG 30:18:49.5:2.5 mole ratio
SMILES,"PDI (polydispersity index) [3, 7]","Z-ave (hydrodynamic diameter) [3, 7]","Zeta (zeta potential) [3, 7]",bio-distribution of LNPs (luciferase expression by IVIS) (luciferase expression [5]),further results
CCCCCCN(CCCCCC)CCOC(=O)CCCCCCCCCN(CCO)CCCCCCCCCC(=O)OCCN(CCCCCC)CCCCCC [DSL2-50],0.04,80.3 nm·days,−2.68 mV,,"luciferase activity in the liver after storage (luciferase expression [1]): retain its luciferase activity in the liver; time over which LNPs are stable ([2]; mCherry LNPs stored at 2-8° C.): ≥ 3 months; size of the LNPs compared to freshly prepared LNPs ([2]; mCherry LNPs, after 3 months at 2-8° C.): slightly increased; time over which LNPs are stable ([2]; mLuc LNPs stored at 2-8° C.): ≥ 7 months; size and distribution of the LNPs compared to freshly prepared LNPs ([2]; mLuc LNPs, 210 days (7 months) at 2-8° C.): did not change; post boost antibody response against SARS-CoV-2 (SARS-CoV-2): robust antibody response; amount of Luciferase and mCherry expression [4]: high; toxicity (levels of liver enzymes Alk Phos, SGOT, SGPT) (mice): not toxic; bio-distribution on increasing ionizable lipid mole ratio (40% vs 30%) (luciferase expression [5]): no significant changes in bio-distribution; luciferase activity of LNPs with DOPE as co-lipid compared to DSPC containing LNPs (luciferase expression [5]; IVIS): enhanced luciferase activity observed in the liver; LNP bio-distribution, intramuscular (IM) administration (luciferase expression [5]; mRNA-LNPs, IVIS): also reaching the liver apart from the injection site of the muscle; LNP bio-distribution, intravenous (IV) administration (luciferase expression [5]; mRNA-LNPs, IVIS): distributing to the liver"
CCCCCCCCCCCCN(CCCCCCCCCCCC)CC(=O)ON(CCCCCCCCCCCC)CCCCCCCCCCCC [DSL4-2],0.64,72.4 nm·days,−5.00 mV,no effect,
CCCCC/C=C\C/C=C\CCCCCCCCN(CCO)CCCCCCCCCCOC(=O)CCCCCCCCCN(CCO)CCCCCCCCCCCC [DSL1-2],0.17,197.2 nm·days,−7.52 mV,,peritoneal macrophages expressing tdTomato (peritoneal macrophages): about 90%; uptake by CD11c positive splenic dendritic cells (tdTomato expression) [6]: ~12%
CCCCC/C=C\C/C=C\CCCCCCCCN(CCO)CCCCCCCCCCOC(=O)CCCCCCCCCN(CCO)CCCCCCCCCC(=O)OCCCCCCCCCCN(CCO)CCCCCCCC/C=C\C/C=C\CCCCC [DSL3c-1],0.45,261.9 nm·days,−2.68 mV,distributed to both liver and spleen,
CCCCCCN(CCCCCC)OC(=O)CCCCCCCCCN(CCO)CCCCCCCCCC(=O)ON(CCCCCC)CCCCCC [DSL2-49],0.07,63.9 nm·days,−5.65 mV,,
CCCCC/C=C\C/C=C\CCCCCCCCN(CCO)CCCCCCCCCC(=O)ON(CCCCCCCCCCCC)CCCCCCCCCCCC [DSL2-1],0.24,49.2 nm·days,−6.97 mV,mostly taken-up by the liver,
CCCCC/C=C\C/C=C\CCCCCCCCN(CCO)CCCCCCCCCCOC(=O)CCCCCCCCCN(CCO)CCCCCCCC/C=C\C/C=C\CCCCC [DSL1-1],0.23,187.3 nm·days,−6.37 mV,distributed to both liver and spleen,peritoneal macrophages expressing tdTomato (peritoneal macrophages): ~60%; uptake by CD11c positive splenic dendritic cells (tdTomato expression) [6]: ~3%
CCCCCCCCCCCCN(CCO)CCCCCCCCCCOC(=O)CCCCCCCCCN(CCO)CCCCCCCCCCCC [DSL1-4],0.13,188.7 nm·days,−1.43 mV,preferentially taken up by spleen,PDI ([3]; LNPs with DOPE as co-lipid): 0.1; Z-ave (hydrodynamic diameter) ([3]; LNPs with DOPE as co-lipid): 92.3 nm·days; PDI ([3]; LNPs with DSPC as co-lipid): 0.15; Z-ave (hydrodynamic diameter) ([3]; LNPs with DSPC as co-lipid): 190.9 nm·days; luciferase activity of LNPs with DOPE as co-lipid compared to DSPC containing LNPs (luciferase expression [5]; IVIS): loses its luciferase activity
CCCCC/C=C\C/C=C\CCCCCCCCC(CCCCCCCC/C=C\C/C=C\CCCCC)OC(=O)CCCN(C)C [Dlin-MC3-DMA],,,,,"organ of accumulation (tdTomato expression, IVIS) (tdTomato expression): accumulated in the liver"
CCCCCCCCCCCCN(CCO)CCCCCCCCCC(=O)ON(CCCCCCCCCCCC)CCCCCCCCCCCC [DSL2-2],0.23,50.8 nm·days,−5.31 mV,mostly taken-up by the liver,Z-ave (hydrodynamic diameter) ([3]; LNPs with DOPE as co-lipid): 72.5 nm·days and 88.5 nm·days; Z-ave (hydrodynamic diameter) ([3]; LNPs with DSPC as co-lipid): 50.8 nm·days and 80.3 nm·days; luciferase activity of LNPs with DOPE as co-lipid compared to DSPC containing LNPs (luciferase expression [5]; IVIS): enhanced luciferase activity observed in the liver
CCCCCCCCCCCCN(CCO)CCCCCCCCCC(=O)OCCOC(=O)CCCCCCCCCN(CCO)CCCCCCCCCCCC [DSL1-5],,,,preferentially taken up by spleen,bio-distribution on increasing ionizable lipid mole ratio (40% vs 30%) (luciferase expression [5]): altering the bio-distribution from the spleen to the liver
CCCCC/C=C\C/C=C\CCCCCCCCN(CCO)CCCCCCCCCCCOC(=O)CCCCCCCCCN(O)CCCCCCCCCCCC [DSL1-3],0.17,164.8 nm·days,−3.90 mV,preferentially taken up by spleen,"peritoneal macrophages expressing tdTomato (peritoneal macrophages): ~20%; uptake by CD11c positive splenic dendritic cells (tdTomato expression) [6]: ~18%; toxicity (levels of liver enzymes Alk Phos, SGOT, SGPT) (mice): not toxic; LNP distribution and expression, 1.5 mol % vs 2.5 mol % PEG (luciferase expression [5]; mLUC-LNPs IV, two formulations compared): no significant different observed"
